Settings: Liquid, hot wire

FC(F)(F)CC(F)(F)F [1,1,1,3,3,3-hexafluoropropane]
Settings	thermal conductivity [W/m/K]
252.57 K, 10000 kPa	0.0912
252.8 K, 5000 kPa	0.0891
252.87 K, 100 kPa	0.0873
252.92 K, 10000 kPa	0.0914
253.16 K, 5000 kPa	0.0887
253.24 K, 20000 kPa	0.0955
253.38 K, 100 kPa	0.0872
253.41 K, 30000 kPa	0.0972
253.47 K, 20000 kPa	0.0949
253.51 K, 20000 kPa	0.0952
253.6 K, 10000 kPa	0.0911
253.65 K, 5000 kPa	0.0891
253.66 K, 100 kPa	0.0872
253.86 K, 30000 kPa	0.0971
255.05 K, 30000 kPa	0.0973
272.91 K, 30000 kPa	0.0926
273.36 K, 10000 kPa	0.0847
273.45 K, 20000 kPa	0.0896
273.49 K, 1000 kPa	0.0814
273.66 K, 10000 kPa	0.0851
273.82 K, 5000 kPa	0.0833
273.85 K, 1000 kPa	0.081
273.86 K, 1000 kPa	0.0812
273.95 K, 30000 kPa	0.0929
274.06 K, 20000 kPa	0.0895
274.16 K, 5000 kPa	0.0832
274.27 K, 10000 kPa	0.0855
274.33 K, 30000 kPa	0.0927
274.57 K, 20000 kPa	0.0892
274.63 K, 5000 kPa	0.0835
293.15 K, 10000 kPa	0.0802
293.22 K, 1000 kPa	0.0762
293.42 K, 30000 kPa	0.0894
293.49 K, 1000 kPa	0.0767
293.61 K, 5000 kPa	0.0782
293.65 K, 10000 kPa	0.0805
293.76 K, 5000 kPa	0.0781
293.76 K, 30000 kPa	0.0891
293.85 K, 10000 kPa	0.0802
293.95 K, 5000 kPa	0.0783
294.47 K, 1000 kPa	0.0764
294.54 K, 30000 kPa	0.0893
312.5 K, 5000 kPa	0.0705
312.59 K, 1000 kPa	0.0682
312.89 K, 5000 kPa	0.0709
313.01 K, 1000 kPa	0.0683
313.28 K, 5000 kPa	0.0706
313.39 K, 1000 kPa	0.068
313.53 K, 20000 kPa	0.0809
313.55 K, 10000 kPa	0.0757
313.85 K, 10000 kPa	0.0761
313.86 K, 30000 kPa	0.0853
314.04 K, 10000 kPa	0.0758
314.06 K, 30000 kPa	0.085
314.2 K, 20000 kPa	0.0809
315.13 K, 20000 kPa	0.0815
315.13 K, 30000 kPa	0.0852
332.48 K, 10000 kPa	0.0699
332.49 K, 5000 kPa	0.0654
332.51 K, 1000 kPa	0.0623
332.72 K, 30000 kPa	0.0805
332.79 K, 20000 kPa	0.0756
332.84 K, 30000 kPa	0.0813
332.85 K, 10000 kPa	0.0695
332.87 K, 1000 kPa	0.0624
332.89 K, 5000 kPa	0.0651
333.2 K, 10000 kPa	0.0695
333.24 K, 1000 kPa	0.0623
333.26 K, 5000 kPa	0.0648
333.48 K, 30000 kPa	0.0802
333.59 K, 20000 kPa	0.0755
334.42 K, 20000 kPa	0.0761
353.02 K, 30000 kPa	0.0749
353.17 K, 10000 kPa	0.0636
353.29 K, 20000 kPa	0.0705
353.35 K, 2000 kPa	0.0565
353.35 K, 5000 kPa	0.0593
353.57 K, 30000 kPa	0.0744
353.68 K, 2000 kPa	0.0564
353.74 K, 5000 kPa	0.0592
353.74 K, 20000 kPa	0.0701
353.82 K, 10000 kPa	0.0635
353.95 K, 30000 kPa	0.0741
354.09 K, 20000 kPa	0.0699
354.12 K, 2000 kPa	0.056
354.24 K, 10000 kPa	0.0633
354.4 K, 5000 kPa	0.0594
373.08 K, 10000 kPa	0.0597
373.15 K, 30000 kPa	0.0726
373.22 K, 5000 kPa	0.0554
373.4 K, 20000 kPa	0.0672
373.46 K, 3000 kPa	0.0525
373.56 K, 10000 kPa	0.0596
373.72 K, 5000 kPa	0.0559
373.8 K, 30000 kPa	0.0727
373.84 K, 3000 kPa	0.0524
373.87 K, 20000 kPa	0.0677
374.1 K, 10000 kPa	0.0601
374.21 K, 30000 kPa	0.0724
374.24 K, 5000 kPa	0.0557
374.26 K, 3000 kPa	0.0526
374.57 K, 20000 kPa	0.0672

From the NIST ThermoML archive (doi:10.1016/j.fluid.2011.02.015)
